What was measured:
human Nav 1.7 = biological target: T1, human Nav 1.7 (Homo sapiens, UniProt Q15858); experiment: Nav 1.7 sodium channel inhibition, automated patch clamp (QPATCH II), two pulse voltage protocol; format: cell-based; details: for Mean % inhibition-closed state: closed state (P1) of Nav 1.7; for Mean % inhibition-closed state / Mean % inhibition-inactivated state: CHO cells, compound at/around Cmax concentration as in Table 4; for Mean % inhibition-inactivated state: inactivated state (P2) of Nav 1.7; for ranking of the compounds in terms of efficacy: Nav 1.7 inhibition at Cmax
T1 construct: expressed in transfected cells
T1 sequence (Q15858 whole entry): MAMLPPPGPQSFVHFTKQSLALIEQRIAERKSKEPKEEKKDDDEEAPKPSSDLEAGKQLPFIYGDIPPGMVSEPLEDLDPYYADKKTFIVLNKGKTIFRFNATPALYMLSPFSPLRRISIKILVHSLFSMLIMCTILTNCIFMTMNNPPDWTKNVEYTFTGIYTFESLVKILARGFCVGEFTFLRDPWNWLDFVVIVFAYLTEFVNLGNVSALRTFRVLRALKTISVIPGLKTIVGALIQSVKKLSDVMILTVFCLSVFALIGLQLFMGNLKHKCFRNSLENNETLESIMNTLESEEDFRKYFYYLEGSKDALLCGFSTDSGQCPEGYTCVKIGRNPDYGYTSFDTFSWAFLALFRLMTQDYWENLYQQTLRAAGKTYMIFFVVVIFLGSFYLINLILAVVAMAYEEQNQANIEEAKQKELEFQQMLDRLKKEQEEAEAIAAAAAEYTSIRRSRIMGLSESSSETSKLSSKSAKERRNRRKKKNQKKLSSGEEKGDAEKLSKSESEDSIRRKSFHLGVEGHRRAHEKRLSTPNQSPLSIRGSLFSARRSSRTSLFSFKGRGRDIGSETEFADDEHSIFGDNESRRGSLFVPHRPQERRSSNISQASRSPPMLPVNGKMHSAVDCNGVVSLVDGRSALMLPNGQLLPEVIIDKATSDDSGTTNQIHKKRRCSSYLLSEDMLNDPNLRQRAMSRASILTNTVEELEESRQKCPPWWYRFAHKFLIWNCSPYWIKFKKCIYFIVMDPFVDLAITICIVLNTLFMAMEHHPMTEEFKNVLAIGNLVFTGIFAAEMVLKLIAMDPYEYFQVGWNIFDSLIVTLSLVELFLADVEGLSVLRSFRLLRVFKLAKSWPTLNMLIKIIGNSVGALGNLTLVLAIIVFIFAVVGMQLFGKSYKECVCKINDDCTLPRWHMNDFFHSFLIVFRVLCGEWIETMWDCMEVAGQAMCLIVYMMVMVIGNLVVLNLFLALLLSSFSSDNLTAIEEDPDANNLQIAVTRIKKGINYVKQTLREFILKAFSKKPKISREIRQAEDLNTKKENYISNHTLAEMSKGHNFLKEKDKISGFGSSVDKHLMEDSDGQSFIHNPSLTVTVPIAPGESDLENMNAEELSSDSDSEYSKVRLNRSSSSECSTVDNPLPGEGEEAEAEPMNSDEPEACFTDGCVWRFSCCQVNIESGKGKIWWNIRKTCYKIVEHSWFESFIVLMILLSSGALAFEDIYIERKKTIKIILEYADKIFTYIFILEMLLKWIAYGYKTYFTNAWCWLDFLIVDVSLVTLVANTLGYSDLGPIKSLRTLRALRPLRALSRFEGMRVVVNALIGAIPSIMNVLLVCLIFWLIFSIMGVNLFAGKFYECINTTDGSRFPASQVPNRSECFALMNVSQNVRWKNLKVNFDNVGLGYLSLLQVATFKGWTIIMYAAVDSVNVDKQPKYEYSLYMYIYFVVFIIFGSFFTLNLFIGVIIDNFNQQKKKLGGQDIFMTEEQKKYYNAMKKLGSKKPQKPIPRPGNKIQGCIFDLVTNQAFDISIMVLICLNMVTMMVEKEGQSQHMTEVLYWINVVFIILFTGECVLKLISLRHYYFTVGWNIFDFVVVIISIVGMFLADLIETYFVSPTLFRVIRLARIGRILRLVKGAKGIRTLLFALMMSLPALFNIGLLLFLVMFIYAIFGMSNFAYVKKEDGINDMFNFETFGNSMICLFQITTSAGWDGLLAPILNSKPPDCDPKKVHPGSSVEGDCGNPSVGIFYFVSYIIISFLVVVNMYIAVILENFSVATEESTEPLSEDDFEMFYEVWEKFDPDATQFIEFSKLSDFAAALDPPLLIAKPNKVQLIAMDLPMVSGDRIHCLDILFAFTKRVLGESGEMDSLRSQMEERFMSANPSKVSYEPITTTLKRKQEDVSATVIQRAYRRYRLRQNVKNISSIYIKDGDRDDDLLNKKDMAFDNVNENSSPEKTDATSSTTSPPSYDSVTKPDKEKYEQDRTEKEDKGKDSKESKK
Protocol: Chinese Hamster Ovary (CHO) cells stably expressing human Nav 1.7 were cultured according to the manufacturer's standard operating procedure (SOP) and enzymatically lifted into solution following Sophion's standard SOP.
Voltage protocol 1 (VP1): A voltage protocol designed to generate a current voltage relationship and to estimate the half inactivation potential (V1/2) was used. The first voltage protocol was used as quality control and the latter was used later in the experiment (see below).
Voltage protocol 2 (VP2): Two pulse voltage protocol. FIG. 2 depicts a two pulse voltage protocol. The line marked with an asterisk indicates the voltage that was applied to the cell. In the beginning, all channels were in the closed state (V=−120 mV). A depolarization step to V=10 mV (P1) activated all channels and produced the largest possible current. Next, cells were kept at the V1/2 value for 1 s. […] A second stimulation to V=−10 mV activated all channels that were in the closed state (50%). Compound effects were assessed at both P1 and P2. State dependent compounds will show a different degree of inhibition at the two different pulses. This protocol was repeated every 10 s to monitor compound effects on the channel.

[1] = oral dose 10 mg; reference value; cited from earlier work

| SMILES | Mean % inhibition-closed state (human Nav 1.7) | Mean % inhibition-inactivated state (human Nav 1.7) | activity at the sodium channel subunit Nav 1.7 (human Nav 1.7) | ranking of the compounds in terms of efficacy (human Nav 1.7) | activity at Nav 1.7 compared with bupivacaine (human Nav 1.7; cilnidipine at 20 mg dose) | activity at Nav 1.7 compared with gabapentin (human Nav 1.7; cilnidipine at 20 mg dose) | activity at Nav 1.7 relative to amlodipine (human Nav 1.7; comparable clinical doses (amlodipine 5 mg to cilnidipine 10 mg and amlodipine 10 mg to cilnidipine 20 mg)) | higher relative inhibition of Nav 1.7 than amlodipine (human Nav 1.7; plasma concentrations achieved with 10 mg cilnidipine versus clinically comparable 5 mg amlodipine) | Cmax [1] |
| --- | --- | --- | --- | --- | --- | --- | --- | --- | --- |
| CCN(CC)CC(=O)Nc1c(C)cccc1C [lidocaine] | 40.9% | 89.0% | – | – | – | – | – | – | – |
| CCCCN1CCCCC1C(=O)Nc1c(C)cccc1C (centres unmarked) [bupivacaine] | 2.5% | 20% | – | – | – | – | – | – | – |
| COCCOC(=O)C1=C(C)NC(C)=C(C(=O)OC/C=C/c2ccccc2)C1c1cccc([N+](=O)[O-])c1 (centres unmarked) [cilnidipine] | −6.7% | 18.5% | clinically meaningful activity | gabapentin<amlodipine<cilnidipine nifedipine | appears to be greater than a sodium channel blocker and local anesthetic, bupivacaine | greater than gabapentin | about 5 × | 9.5% | 5.9 ± 1.2 ng/mL |
| CCOC(=O)C1=C(COCCN)NC(C)=C(C(=O)OC)C1c1ccccc1Cl (centres unmarked) [amlodipine] | −7.4% | 7.8% | – | – | – | – | – | – | – |
| C[S+](C)[O-] [DMSO] | −2.7% | 38.7% | – | – | – | – | – | – | – |
| NCC1(CC(=O)O)CCCCC1 [gabapentin] | −5.2% | 6.3% | – | gabapentin<amlodipine<cilnidipine nifedipine | – | – | – | – | – |

Source: US20230115611A1, “TREATMENT OF PAIN AND VASOCONSTRICTION” (Aisa Pharma, Inc., priority 2020, published 2023)
